Holding throughout (assay): KinomeScan kinase panel, single concentration 10 µM
What all share (format): binding

Assay [1] has as its target T1, KinomeScan kinase panel (Homo sapiens, UniProt O14965).
T1 construct: purchased DiscoveRx (KinomeScan)
T1 sequence (O14965 1-403): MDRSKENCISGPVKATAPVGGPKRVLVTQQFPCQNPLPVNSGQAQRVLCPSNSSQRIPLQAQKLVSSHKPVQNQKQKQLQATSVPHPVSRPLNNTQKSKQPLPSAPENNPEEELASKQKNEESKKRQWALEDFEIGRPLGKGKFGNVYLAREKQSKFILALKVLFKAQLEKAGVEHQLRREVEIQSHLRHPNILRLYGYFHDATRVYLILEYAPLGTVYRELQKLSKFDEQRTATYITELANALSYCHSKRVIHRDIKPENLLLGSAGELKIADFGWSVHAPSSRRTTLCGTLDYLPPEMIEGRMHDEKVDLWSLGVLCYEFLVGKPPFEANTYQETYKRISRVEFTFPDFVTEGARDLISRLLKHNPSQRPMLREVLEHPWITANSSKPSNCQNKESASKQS
The note with it: AURKA, 10 µM; read-out: score (%).

The target in assay [2] is T2, KinomeScan kinase panel (Homo sapiens, UniProt P00519, F317L).
T2 construct: purchased DiscoveRx (KinomeScan)
T2 sequence (P00519 whole entry F317L): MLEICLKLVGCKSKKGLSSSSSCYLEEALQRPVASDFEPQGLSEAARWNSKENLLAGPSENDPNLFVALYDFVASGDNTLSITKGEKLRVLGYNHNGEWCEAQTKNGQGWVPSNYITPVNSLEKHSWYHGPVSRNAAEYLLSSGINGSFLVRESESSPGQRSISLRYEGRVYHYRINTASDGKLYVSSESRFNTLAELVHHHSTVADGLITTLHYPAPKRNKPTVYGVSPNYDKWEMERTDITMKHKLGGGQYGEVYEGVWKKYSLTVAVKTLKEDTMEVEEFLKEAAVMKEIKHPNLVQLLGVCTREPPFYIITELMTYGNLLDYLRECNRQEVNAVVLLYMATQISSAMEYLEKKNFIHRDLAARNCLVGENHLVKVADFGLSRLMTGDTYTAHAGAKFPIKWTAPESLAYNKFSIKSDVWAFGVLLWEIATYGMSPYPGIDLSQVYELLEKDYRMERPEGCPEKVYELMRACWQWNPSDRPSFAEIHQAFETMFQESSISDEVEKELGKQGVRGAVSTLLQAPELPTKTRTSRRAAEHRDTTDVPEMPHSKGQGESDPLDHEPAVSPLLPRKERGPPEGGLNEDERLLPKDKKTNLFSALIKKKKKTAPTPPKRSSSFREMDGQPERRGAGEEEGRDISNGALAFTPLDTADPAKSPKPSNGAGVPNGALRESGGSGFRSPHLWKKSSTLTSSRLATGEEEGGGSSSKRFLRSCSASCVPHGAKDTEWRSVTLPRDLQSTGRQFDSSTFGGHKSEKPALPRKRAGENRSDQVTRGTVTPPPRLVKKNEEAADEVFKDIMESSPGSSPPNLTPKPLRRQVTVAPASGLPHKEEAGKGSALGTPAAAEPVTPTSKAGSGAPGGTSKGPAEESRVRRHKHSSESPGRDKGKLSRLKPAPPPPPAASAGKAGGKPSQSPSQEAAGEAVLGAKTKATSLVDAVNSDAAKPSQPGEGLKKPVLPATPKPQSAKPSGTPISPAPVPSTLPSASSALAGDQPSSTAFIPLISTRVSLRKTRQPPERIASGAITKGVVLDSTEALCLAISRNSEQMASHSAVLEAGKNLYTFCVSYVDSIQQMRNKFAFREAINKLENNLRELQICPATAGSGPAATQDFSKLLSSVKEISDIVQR
The note with it: 10 µM, read-out: score (%).

Assay [3] concerns the target T3, KinomeScan kinase panel (Homo sapiens, UniProt P04629).
T3 construct: purchased DiscoveRx (KinomeScan)
The note with it: 10 µM, read-out: score (%).

Assay [4] addresses T4, KinomeScan kinase panel (Homo sapiens, UniProt P10721).
T4 construct: purchased DiscoveRx (KinomeScan)
The note with it: KIT, 10 µM; read-out: score (%).

For assay [5], the target named is T5, KinomeScan kinase panel (Homo sapiens, UniProt P10721, T670I/V559D).
T5 construct: purchased DiscoveRx (KinomeScan)
T5 sequence (P10721 26-976 V559D/T670I): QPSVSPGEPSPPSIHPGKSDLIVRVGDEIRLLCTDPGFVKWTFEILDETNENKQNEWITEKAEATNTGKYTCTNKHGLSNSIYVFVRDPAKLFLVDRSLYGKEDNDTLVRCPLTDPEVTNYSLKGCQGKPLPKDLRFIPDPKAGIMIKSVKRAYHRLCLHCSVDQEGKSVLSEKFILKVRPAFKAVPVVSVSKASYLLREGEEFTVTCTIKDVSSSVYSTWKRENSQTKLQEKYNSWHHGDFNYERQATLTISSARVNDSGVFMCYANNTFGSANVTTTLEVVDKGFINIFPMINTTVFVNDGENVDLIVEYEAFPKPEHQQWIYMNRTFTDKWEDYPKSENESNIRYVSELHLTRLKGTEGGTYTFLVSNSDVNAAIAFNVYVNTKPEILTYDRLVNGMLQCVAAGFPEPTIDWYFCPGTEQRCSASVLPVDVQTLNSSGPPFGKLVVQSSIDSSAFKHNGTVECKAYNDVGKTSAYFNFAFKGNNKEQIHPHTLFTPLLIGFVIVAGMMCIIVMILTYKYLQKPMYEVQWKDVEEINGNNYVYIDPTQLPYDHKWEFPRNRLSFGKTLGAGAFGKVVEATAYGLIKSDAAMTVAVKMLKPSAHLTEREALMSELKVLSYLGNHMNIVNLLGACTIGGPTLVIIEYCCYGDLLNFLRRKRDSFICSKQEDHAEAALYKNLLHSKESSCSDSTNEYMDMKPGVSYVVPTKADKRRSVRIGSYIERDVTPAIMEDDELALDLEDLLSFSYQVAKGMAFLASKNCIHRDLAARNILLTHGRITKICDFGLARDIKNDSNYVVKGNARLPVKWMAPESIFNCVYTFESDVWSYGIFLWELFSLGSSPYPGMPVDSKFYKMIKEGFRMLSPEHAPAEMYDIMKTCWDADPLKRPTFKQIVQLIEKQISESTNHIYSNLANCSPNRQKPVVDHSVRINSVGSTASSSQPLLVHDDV
The note with it: KIT(V559D.T670I), 10 µM; read-out: score (%).

Assay [6] deals with T6, KinomeScan kinase panel (Homo sapiens, UniProt P10721, V559D/V654A).
T6 construct: purchased DiscoveRx (KinomeScan)
T6 sequence (P10721 26-976 V559D/V654A): as the sequence (P10721 26-976 V559D/T670I) above, with V629A, I645T counted along it
Conditions: KIT(V559D.V654A), 10 µM; read-out: score (%).

Assay [7] addresses T7, KinomeScan kinase panel (Homo sapiens, UniProt P27037).
T7 construct: purchased DiscoveRx (KinomeScan)
The note with it: ACVR2A, 10 µM; read-out: score (%).

Assay [8] concerns the target T8, KinomeScan kinase panel (Homo sapiens, UniProt P29597).
T8 construct: purchased DiscoveRx (KinomeScan)

In assay [9] the target is T9, KinomeScan kinase panel (Homo sapiens, UniProt P30291).
T9 construct: purchased DiscoveRx (KinomeScan)
The note with it: kinase WEE1; 10 µM; read-out: score (%).

For assay [10], the target named is T10, KinomeScan kinase panel (Homo sapiens, UniProt P48730).
T10 construct: purchased DiscoveRx (KinomeScan)
Conditions: CSNK1D, 10 µM; read-out: score (%).

The target in assay [11] is T11, KinomeScan kinase panel (Homo sapiens, UniProt P49137).
T11 construct: purchased DiscoveRx (KinomeScan)
Conditions: MAPKAPK2, 10 µM; read-out: score (%).

The target of assay [12] is T12, KinomeScan kinase panel (Homo sapiens, UniProt P54753).
T12 construct: purchased DiscoveRx (KinomeScan)
T12 sequence (P54753 34-998): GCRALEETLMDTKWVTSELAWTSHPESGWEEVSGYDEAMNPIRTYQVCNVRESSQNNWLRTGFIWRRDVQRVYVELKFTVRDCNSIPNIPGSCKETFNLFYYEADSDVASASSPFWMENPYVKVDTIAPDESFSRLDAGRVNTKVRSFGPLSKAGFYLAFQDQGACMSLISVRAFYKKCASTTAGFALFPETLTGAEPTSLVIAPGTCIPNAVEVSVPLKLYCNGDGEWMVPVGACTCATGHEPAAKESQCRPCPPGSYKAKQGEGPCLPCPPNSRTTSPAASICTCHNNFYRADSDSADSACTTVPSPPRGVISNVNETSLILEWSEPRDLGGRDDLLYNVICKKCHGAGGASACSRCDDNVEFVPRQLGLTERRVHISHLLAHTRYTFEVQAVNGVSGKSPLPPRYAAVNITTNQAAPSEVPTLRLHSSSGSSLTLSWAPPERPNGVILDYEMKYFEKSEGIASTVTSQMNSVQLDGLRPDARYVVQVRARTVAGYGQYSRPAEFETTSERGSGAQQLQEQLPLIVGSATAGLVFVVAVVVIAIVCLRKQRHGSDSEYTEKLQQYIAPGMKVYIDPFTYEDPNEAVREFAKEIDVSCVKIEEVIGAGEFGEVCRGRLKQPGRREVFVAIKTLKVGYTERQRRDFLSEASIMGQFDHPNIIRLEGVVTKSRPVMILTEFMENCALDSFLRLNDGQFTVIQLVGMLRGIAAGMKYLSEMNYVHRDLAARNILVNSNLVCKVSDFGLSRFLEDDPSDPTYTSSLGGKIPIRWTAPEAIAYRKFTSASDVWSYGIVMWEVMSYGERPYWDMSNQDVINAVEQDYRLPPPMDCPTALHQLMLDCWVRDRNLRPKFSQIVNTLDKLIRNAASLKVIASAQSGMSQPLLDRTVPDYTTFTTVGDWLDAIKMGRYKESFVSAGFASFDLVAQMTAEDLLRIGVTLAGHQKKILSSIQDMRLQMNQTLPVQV
The note with it: EPHB3, 10 µM; read-out: score (%).

The target of assay [13] is T13, KinomeScan kinase panel (Homo sapiens, UniProt Q05655).
T13 construct: purchased DiscoveRx (KinomeScan)
Conditions: 10 µM, read-out: score (%).

For assay [14], the target named is T14, KinomeScan kinase panel (Homo sapiens, UniProt Q13882).
T14 construct: purchased DiscoveRx (KinomeScan)
T14 sequence (Q13882 whole entry): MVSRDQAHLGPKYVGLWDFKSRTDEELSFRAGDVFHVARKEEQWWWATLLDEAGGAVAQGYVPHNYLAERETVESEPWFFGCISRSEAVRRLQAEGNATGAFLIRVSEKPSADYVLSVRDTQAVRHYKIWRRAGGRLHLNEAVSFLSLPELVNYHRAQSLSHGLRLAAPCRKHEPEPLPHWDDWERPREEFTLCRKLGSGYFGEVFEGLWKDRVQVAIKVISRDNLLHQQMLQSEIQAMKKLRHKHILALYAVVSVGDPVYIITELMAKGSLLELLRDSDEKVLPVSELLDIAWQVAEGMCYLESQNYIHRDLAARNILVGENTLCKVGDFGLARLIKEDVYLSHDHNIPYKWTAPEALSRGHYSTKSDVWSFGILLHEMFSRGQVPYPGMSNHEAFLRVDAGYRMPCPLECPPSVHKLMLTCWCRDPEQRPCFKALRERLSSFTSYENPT
The note with it: read-out: score (%).

In assay [15] the target is T15, KinomeScan kinase panel (Homo sapiens, UniProt Q15746).
T15 construct: purchased DiscoveRx (KinomeScan)
Conditions: MYLK, 10 µM; read-out: score (%).

For assay [16], the target named is T16, KinomeScan kinase panel (Homo sapiens, UniProt Q8NI60).
T16 construct: purchased DiscoveRx (KinomeScan)
Conditions: ADCK3, 10 µM; read-out: score (%).

For assay [17], the target named is T17, KinomeScan kinase panel (Homo sapiens, UniProt Q8TDX7).
T17 construct: purchased DiscoveRx (KinomeScan)
T17 sequence (Q8TDX7 whole entry): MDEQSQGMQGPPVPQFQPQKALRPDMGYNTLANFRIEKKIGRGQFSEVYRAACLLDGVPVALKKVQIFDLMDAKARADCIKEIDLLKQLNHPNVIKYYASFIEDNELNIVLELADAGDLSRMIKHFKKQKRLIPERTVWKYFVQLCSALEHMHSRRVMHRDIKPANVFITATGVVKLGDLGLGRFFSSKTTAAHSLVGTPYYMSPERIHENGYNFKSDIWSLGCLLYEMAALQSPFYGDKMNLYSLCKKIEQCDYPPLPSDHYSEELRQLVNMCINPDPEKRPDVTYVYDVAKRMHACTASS
The note with it: NEK7, 10 µM; read-out: score (%).

In assay [18] the target is T18, KinomeScan kinase panel (Homo sapiens, UniProt Q9BWU1).
T18 construct: purchased DiscoveRx (KinomeScan)
The note with it: CDK11, 10 µM.

Assay [19] addresses T19, KinomeScan kinase panel (Homo sapiens, UniProt Q9Y243).
T19 construct: purchased DiscoveRx (KinomeScan)
The note with it: AKT3, 10 µM; read-out: score (%).

The target in assay [20] is T20, KinomeScan kinase panel (Homo sapiens, UniProt Q9Y6R4).
T20 construct: purchased DiscoveRx (KinomeScan)
T20 sequence (Q9Y6R4 whole entry): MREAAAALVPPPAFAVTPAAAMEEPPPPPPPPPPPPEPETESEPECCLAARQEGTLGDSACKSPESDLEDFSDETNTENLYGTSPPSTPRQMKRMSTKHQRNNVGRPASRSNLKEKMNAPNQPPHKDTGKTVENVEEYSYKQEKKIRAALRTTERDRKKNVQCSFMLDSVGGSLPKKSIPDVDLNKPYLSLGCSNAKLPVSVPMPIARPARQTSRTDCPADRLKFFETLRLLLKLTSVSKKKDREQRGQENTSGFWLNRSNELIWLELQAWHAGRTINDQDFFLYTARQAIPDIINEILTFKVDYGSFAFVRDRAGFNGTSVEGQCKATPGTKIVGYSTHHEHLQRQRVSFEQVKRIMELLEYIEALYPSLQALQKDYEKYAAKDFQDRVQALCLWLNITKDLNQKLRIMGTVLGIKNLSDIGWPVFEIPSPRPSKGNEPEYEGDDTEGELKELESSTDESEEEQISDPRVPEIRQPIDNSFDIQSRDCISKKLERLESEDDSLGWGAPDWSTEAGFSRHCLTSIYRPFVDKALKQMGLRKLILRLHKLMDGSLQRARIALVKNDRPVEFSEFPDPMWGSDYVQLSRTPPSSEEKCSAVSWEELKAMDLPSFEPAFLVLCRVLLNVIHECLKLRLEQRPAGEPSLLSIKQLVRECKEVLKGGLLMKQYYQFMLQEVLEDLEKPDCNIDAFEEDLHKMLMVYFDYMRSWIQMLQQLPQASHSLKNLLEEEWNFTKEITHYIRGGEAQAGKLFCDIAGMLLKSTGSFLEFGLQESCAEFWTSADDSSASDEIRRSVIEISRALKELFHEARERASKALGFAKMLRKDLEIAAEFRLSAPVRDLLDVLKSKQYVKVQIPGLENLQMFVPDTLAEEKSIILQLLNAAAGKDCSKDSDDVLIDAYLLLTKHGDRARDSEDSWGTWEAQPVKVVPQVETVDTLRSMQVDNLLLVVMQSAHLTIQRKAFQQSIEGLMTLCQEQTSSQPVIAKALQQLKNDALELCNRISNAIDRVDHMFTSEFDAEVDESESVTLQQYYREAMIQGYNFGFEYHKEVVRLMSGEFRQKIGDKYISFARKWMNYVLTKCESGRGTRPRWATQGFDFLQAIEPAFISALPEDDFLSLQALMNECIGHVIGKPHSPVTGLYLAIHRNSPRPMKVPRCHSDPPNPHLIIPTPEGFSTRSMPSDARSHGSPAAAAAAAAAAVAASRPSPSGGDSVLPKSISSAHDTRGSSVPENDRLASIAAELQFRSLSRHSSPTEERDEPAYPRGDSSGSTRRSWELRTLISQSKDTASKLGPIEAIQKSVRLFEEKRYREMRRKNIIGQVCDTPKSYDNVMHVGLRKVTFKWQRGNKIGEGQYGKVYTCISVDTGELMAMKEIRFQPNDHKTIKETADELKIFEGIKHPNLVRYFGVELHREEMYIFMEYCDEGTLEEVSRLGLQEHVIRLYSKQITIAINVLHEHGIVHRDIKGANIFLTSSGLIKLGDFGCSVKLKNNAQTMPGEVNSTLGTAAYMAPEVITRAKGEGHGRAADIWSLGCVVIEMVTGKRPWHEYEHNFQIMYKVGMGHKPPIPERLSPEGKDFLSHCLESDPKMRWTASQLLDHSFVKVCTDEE
Conditions: MAP3K4, 10 µM; read-out: score (%).

[21] abbreviates: kinase TYK2(JH1domain-catalytic), 10 µM.

SMILES strings stand for the structures. Where two headings read alike, the source gives them in different places.

T19 sequence (Q9Y243 whole entry): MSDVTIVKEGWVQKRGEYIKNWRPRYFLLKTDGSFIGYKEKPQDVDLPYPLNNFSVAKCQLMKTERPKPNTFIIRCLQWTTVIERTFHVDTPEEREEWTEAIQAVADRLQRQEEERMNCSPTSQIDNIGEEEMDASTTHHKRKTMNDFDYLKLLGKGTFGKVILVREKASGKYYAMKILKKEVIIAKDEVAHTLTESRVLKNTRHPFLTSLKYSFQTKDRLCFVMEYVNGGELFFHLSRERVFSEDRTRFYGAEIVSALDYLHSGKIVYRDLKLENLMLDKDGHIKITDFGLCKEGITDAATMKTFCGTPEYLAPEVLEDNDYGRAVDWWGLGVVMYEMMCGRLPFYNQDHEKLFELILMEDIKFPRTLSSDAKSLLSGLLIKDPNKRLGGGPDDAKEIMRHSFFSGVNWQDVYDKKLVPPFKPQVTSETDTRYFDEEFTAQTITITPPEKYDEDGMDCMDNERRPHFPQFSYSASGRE
T4 sequence (P10721 26-976): as the sequence (P10721 26-976 V559D/T670I) above, with D534V, I645T counted along it

Take `CCN1CCN(Cc2ccc(NC(=O)c3ccc(C)c(NC(=O)c4cncc(-c5cccs5)c4)c3)cc2C(F)(F)F)CC1` [ALW-II-41-27]: the remaining binding at 10 µM in [1] was above 30%; in [2] (ABL1(F317L)), 0.2%; in assay [3] (kinase TRKA) it was 4.4%; in assay [4], 0%; in assay [5], 0.05%; in assay [6], 5.4%. For the same compound, the remaining binding at 10 µM is above 30% in assay [7]; above 30% in assay [9]; 5% in assay [10]; above 30% in assay [11]; 0.3% in assay [12]; 1.2% in [13] (PRKCD). The remaining binding at 10 µM in assay [14] (BRK, 10 µM) was 8.2%; in [15] it was above 30%; in assay [16] it was above 30%; in assay [17] it was above 30%; in [19], 20%; in assay [20], above 30%. In addition, the figures for the “score (%)” value in assay [8], in [8] (setting [21]) and in [18] were “nb (Hits values higher than 30% were considered negative (no binding: nb))”, 9.8% and 3.8%, respectively.

In the case of `CCN1CCN(Cc2ccc(NC(=O)c3ccc(C)c(/C=C/c4cnc5[nH]ccc5c4Cl)c3)cc2C(F)(F)F)CC1` [HG-6-63-01, (E)-3-(2-(4-chloro-1H-pyrrolo[2,3-b]pyridin-5-yl)vinyl)-N-(4-((4-ethylpiperazin-1-yl)methyl)-3-(trifluoromethyl)phenyl)-4-methylbenzamide], the remaining binding at 10 µM in assay [1] stood at 24%; in [2] (ABL1(F317L)) it was 0.1%; in assay [3] (TRKA) it was 8.2%; in assay [4] it was 0%; in [5], 0%; in assay [6], 0.9%. Moreover, the remaining binding at 10 µM was above 30% in [7]; above 30% in assay [9]; above 30% in assay [10]; above 30% in assay [11]; 11% in assay [12]; above 30% in assay [13] (PRKCD). The remaining binding at 10 µM in [14] (PTK6, 10 µM) is 17%; in assay [15], above 30%; in assay [16], above 30%; in assay [17], above 30%; in [19] it was above 30%; in assay [20] it was above 30%. Further, the “score (%)” value in assay [8] (kinase TYK2(Kin.Dom.1), 10 µM) is “nb (Hits values higher than 30% were considered negative (no binding: nb))”; in assay [8] (kinase TYK2(Kin.Dom.2), 10 µM), 7%; in assay [18] it was 3%.

Turning to `CCN1CCN(Cc2ccc(NC(=O)c3ccc(C)c(C#Cc4cccnc4)c3)cc2C(F)(F)F)CC1` [XMD15-44], the remaining binding at 10 µM is above 30% in assay [1]; 0% in [2] (ABL1(F317L)-nonphosphorylated); 0.85% in [2] (ABL1(F317L)-phosphorylated); 0.35% in assay [3] (kinase TRKA); 0% in [4]; 0% in [5]. Also, the remaining binding at 10 µM was 4.2% in assay [6]; above 30% in [7]; 100% in [9]; 29% in assay [10]; above 30% in [11]; 0.25% in assay [12]. Further, the remaining binding at 10 µM in assay [13] (kinase PRKCD) is 39%; in [14] (BRK, 10 µM), 2.8%; in [15] it was above 30%; in assay [16], above 30%; in assay [17], 88%; in assay [19] it was above 30%. Moreover, in assay [20], the remaining binding at 10 µM was above 30%. For the same compound, the “score (%)” value in assay [8] (setting [21]) stood at 4.2%; in [8] (kinase TYK2(JH2domain-pseudokinase), 10 µM), 99%; in assay [18] it was 5%.

The values above are taken from paper PMC4457528, “Identification of Novel Small Molecule Inhibitors of Oncogenic RET Kinase” (PLoS ONE, 2015).
